Consider nine compounds from PMC7246923, “Inhibition of Xanthine Oxidase-Catalyzed Xanthine and 6-Mercaptopurine Oxidation by Flavonoid Aglycones and Some of Their Conjugates” (International Journal of Molecular Sciences, 2020).

Where two headings read alike, the source gives them in different places.

The term IC50 denotes the midpoint of a concentration-inhibition curve.

Test [1] addresses T1, Xanthine oxidase (XO; from bovine milk) (Bos taurus, UniProt P80457).
T1 construct: Xanthine oxidase (XO; from bovine milk); purchased Sigma-Aldrich; host or cells: bovine milk
In words: XO-catalyzed xanthine oxidation (uric acid formation), HPLC. Format: biochemical. The settings on record: for IC50 (xanthine)/IC50 (6MP): ratio of IC50 values of xanthine and 6MP assays; for IC50: substrate xanthine 5 μM, inhibitor 0–20 μM. On the procedure:
(§1) Chrysin-7-glucuronide (C7G) and 6-thiouric acid were purchased from Carbosynth (Berkshire, UK). Chrysin-7-sulfate (C7S) was synthetized as described. Stock solutions of flavonoids (each 2 mM) were prepared in dimethyl sulfoxide (DMSO) and stored at −20 °C.
(§2) To test the inhibitory effects of flavonoids and their metabolites on the XO-catalyzed oxidation of xanthine and 6MP, the previously reported methods were applied without modifications. […] In each experiment, solvent controls (DMSO) were used. Metabolite formation (% of control) was plotted vs. the inhibitor concentrations in decimal logarithmic scale. IC50 values were evaluated by sigmoidal fitting, employing GraphPad Prism 8 software (San Diego, CA, USA).
(§3) After the in vitro XO assays, xanthine and uric acid as well as 6MP and 6-thiouric acid were quantified by the HPLC-UV methods described in our previous report, without any modifications.

A further test concerns hyperuricaemic mice. As to conditions: cited from earlier work; for serum uric acid levels: orally administered; for serum uric acid concentrations: hyperuricemic mice, per os, API 50 and 100 mg/kg, KAE 50 and 100 mg/kg, LUT 100 mg/kg.
The target of test [2] is T1, Xanthine oxidase (XO; from bovine milk). Kind of test: XO-catalyzed 6-mercaptopurine oxidation (6-thiouric acid formation), HPLC. The format is biochemical. On the procedure: as §1, §2, §3
Another test concerns normal mice. The arrangement: method as in PMID 17666819. The settings on record: per os; cited from earlier work.
Where [3] appears, read: substrate 6MP 5 μM, inhibitor 0–20 μM, read-out: IC50(6MP).
The mark [4] stands for this setting: hyperuricaemic mice, LUT 16–100 mg/kg, LUT-7-O-glucoside 50 and 100 mg/kg.

T1 sequence (P80457 whole entry): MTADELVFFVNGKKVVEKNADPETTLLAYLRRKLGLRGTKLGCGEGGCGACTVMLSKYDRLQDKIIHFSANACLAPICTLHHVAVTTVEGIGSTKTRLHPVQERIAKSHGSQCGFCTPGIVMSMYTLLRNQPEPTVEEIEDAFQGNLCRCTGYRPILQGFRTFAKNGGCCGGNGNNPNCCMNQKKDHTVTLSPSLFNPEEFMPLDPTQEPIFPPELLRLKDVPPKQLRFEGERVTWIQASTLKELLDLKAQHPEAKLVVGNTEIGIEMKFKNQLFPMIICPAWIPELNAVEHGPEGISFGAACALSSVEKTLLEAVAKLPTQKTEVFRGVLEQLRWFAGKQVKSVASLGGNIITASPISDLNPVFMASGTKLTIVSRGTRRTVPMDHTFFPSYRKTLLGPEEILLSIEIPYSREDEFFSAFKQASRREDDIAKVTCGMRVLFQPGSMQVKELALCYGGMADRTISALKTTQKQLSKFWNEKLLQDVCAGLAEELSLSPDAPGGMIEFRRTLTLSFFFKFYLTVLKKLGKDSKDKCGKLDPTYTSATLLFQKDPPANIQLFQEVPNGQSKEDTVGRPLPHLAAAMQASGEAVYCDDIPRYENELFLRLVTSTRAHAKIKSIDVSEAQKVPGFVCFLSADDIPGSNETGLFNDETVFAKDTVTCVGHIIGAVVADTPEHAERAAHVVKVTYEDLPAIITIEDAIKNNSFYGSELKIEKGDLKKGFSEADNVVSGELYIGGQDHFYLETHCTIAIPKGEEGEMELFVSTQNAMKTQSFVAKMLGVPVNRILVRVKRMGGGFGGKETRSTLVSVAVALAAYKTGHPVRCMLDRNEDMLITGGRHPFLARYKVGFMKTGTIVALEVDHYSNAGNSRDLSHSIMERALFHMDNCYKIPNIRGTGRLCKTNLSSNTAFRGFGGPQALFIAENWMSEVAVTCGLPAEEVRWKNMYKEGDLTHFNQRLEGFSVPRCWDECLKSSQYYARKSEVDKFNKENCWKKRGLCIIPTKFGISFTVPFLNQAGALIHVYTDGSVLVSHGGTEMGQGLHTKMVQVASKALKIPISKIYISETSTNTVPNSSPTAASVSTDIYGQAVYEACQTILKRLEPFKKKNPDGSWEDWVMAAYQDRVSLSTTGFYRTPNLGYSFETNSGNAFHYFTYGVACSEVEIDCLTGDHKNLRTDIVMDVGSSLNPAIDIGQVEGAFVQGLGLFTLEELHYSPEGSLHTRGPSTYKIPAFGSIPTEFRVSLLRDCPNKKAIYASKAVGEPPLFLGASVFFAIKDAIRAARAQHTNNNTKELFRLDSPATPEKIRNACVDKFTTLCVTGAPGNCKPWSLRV

In the case of `O=c1cc(-c2ccc(O)cc2)oc2cc(O)cc(O)c12` [Apigenin, 5,7,4’-trihydroxyflavone], the “IC50 (xanthine)/IC50 (6MP)” value in test [1] is recorded as 3.00. In addition, the half-maximal inhibitory concentration (IC50) was 270 nM in test [1]; 90 nM in test [2] (setting [3]); below 100 nM in test [2] (substrate 6MP 5 μM, read-out: IC50 values on 6MP oxidation). The “serum uric acid levels” value in the test on hyperuricaemic mice (hyperuricaemic mice, API 175–700 mg/kg) is reported as “did not affect”. The “serum uric acid concentrations” value in the test with hyperuricaemic mice is reported as “significantly decreased”.

As to `O=c1cc(-c2ccc(O)c(O)c2)oc2cc(O[C@@H]3O[C@H](CO)[C@@H](O)[C@H](O)[C@H]3O)cc(O)c12` [LUT-7-O-glucoside], the “serum uric acid levels” value in the test on hyperuricaemic mice (setting [4]) is reported as “did not affect”.

With `O=c1cc(-c2ccc(O)c(O)c2)oc2cc(O)cc(O)c12` [Luteolin, 5,7,3′,4′-tetrahydroxyflavone], the “IC50 (xanthine)/IC50 (6MP)” value in test [1] is 0.59. The IC50 in test [1] was determined as 160 nM; in test [2] (setting [3]) it was 270 nM. Also, in the test on hyperuricaemic mice (hyperuricaemic mice, i.p. administration, 50 mg/kg), the uric acid levels entry is reported as “slight but significant decrease”. Moreover, in the test on hyperuricaemic mice (setting [4]), the “serum uric acid levels” value is “did not affect”. Besides, the “serum uric acid concentrations” value with hyperuricaemic mice is given as “significantly decreased”.

Turning to `COc1cc(-c2oc3cc(O)ccc3c(=O)c2O)ccc1O` [Geraldol, 3’-O-methylfisetin], the “IC50 (xanthine)/IC50 (6MP)” value in test [1] is given as 0.57. Also, the IC50 in test [1] is 680 nM; in test [2] (setting [3]), 1190 nM.

For `O=c1cc(-c2ccccc2)oc2cc(OS(=O)(=O)O)cc(O)c12` [Chrysin-7-sulfate, chrysin-7-sulfate], the IC50 in test [1] is above 20000 nM; in test [2] (setting [3]) it was 2230 nM.

Consider `O=c1c(O)c(-c2ccc(O)cc2)oc2cc(O)cc(O)c12` [Kaempferol, 3,5,7,4′-tetrahydroxyflavone], for which the “serum uric acid concentrations” value in the test with hyperuricaemic mice is given as “significantly decreased”. In the test on normal mice, the uric acid levels entry was “decreased”.

As for `O=c1cc(-c2ccccc2)oc2cc(O)cc(O)c12` [Chrysin, 5,7-dihydroxyflavone], the “IC50 (xanthine)/IC50 (6MP)” value in test [1] is recorded as 3.18. Besides, in test [2], the IC50 was determined as 220 nM.

Take `O=c1c(O)c(-c2ccc(O)c(O)c2)oc2cc(O)ccc12` [Fisetin, 3,7,3′,4′-tetrahydroxyflavone]: in test [1], the “IC50 (xanthine)/IC50 (6MP)” value turned out to be 0.78 and the IC50 amounted to 860 nM. Further, the half-maximal inhibitory concentration (IC50) in test [2] (setting [3]) is 1100 nM.

For `O=C(O)[C@H]1O[C@@H](Oc2cc(O)c3c(=O)cc(-c4ccccc4)oc3c2)[C@H](O)[C@@H](O)[C@@H]1O` [Chrysin-7-glucuronide, chrysin-7-glucuronide], the IC50 in test [1] and in test [2] (setting [3]) was above 20000 nM throughout.
